“Also recorded” adds a separate entry of the source. Where two headings read alike, the source gives them in different places.
How the values were obtained:
MvfR regulon [1] = assay: pqsA gene expression (pqsA-GFP reporter); assay type: cell-based, P. aeruginosa; conditions: for IC50 / activity at 50 µM / activity at 10 µM: Pseudomonas aeruginosa; for IC50: read-out: IC50 pqsA (μM); for activity at 50 µM: read-out: pqsA @50 uM (%), compound at 50 uM; for activity at 10 µM: read-out: pqsA @10 uM (%), compound at 10 uM
MvfR regulon [2] = assay: Quantification of pyocyanin (OD520nm of chloroform-extracted cultures); assay type: cell-based, P. aeruginosa; conditions: for activity at 50 µM: read-out: pyocyanin @50 uM (%), compound at 50 uM; for activity at 1 µM: read-out: pyocyanin @1 uM (%), compound at 1 uM; for activity at 10 µM: read-out: pyocyanin @10 uM (%), compound at 10 uM
MvfR = target: T1, MvfR (Pseudomonas aeruginosa, UniProt Q9I4X0); assay: Surface plasmon resonance (SPR) binding to purified MvfR co-inducer binding domain; set-up: species or system P. aeruginosa; conditions: SPR
T1 construct: made in house
Protocol: Compounds identified to interfere with MvfR were confirmed for the direct physical interaction with this protein. Using SPR, the percentage of compound's binding to the purified MvfR protein was analyzed and used to determine the binding parameters (KD, kon and koff)—thus determining the kinetic of interaction with MvfR.
The recombinant MvfR co-inducer binding domain was purified using Ni-NTA chromatography, as previously reported (see e.g., Xiao et al, Microbiology, 2006, 152:1679-1686; Starkey et al, PLoS Pathog. 2014, 10:e1004321; and Kefala et al, Acta. Crystallogr. Sect. F. Struct. Biol. Cryst. Commun. 2012, 68:695-697). The purified protein was immobilized with the amine coupling method at a target level of 5000 RU on Chip. SPR was performed according to previously reported procedures (see e.g., Starkey et al, PLoS Pathog. 2014, 10:e1004321; Maura et al, ACS Chemical Biology, 2017, 12:1435-1443; and Kitao et al, MBIO, in press). […] Table 3 lists the steady-state KD data measured by SPR.

MvfR regulon [3] = assay: LC/MS quantification of HAQs and related molecules in bacterial culture supernatants; assay type: cell-based, P. aeruginosa; conditions: Pseudomonas aeruginosa
[4] = system: Caco2 intestinal epithelial cells; assay: Survival of Caco2 cells after compound exposure; assay type: cell-based; conditions: 25 μM, 3 hours exposure
PA14 = assay: Mouse thigh infection model (PA14); assay type: in vivo, mice
Protocol: Mice were infected with 5×10^5 and 5×10^6 PA14 cells for the thigh and lung infection model respectively. FIGS. 5A-5C: Thigh model: treatment was initiated […] and repeated at 4, 8, 12 and 18 hours. FIG. 5A: monotherapy with Compound 72, 10 mg/kg (P<0.05 Mann Whitney test); FIG. 5B-5C. Combinatorial: Compound 72 (10 mg/kg) plus Ciprofloxacin 1 mg/kg (subtherapeutic dose) (FIG. 5B: P<0.05; Figure C: P>0.05; Mann Whitney test). CFUs were assessed 24 h post-infection in the thigh (FIG. 5A), liver (FIG. 5B) and spleen (FIG. 5C). Compound 72 was administered subcutaneously and ciprofloxacin intraperitoneally (IP). […] Mice were infected with 5×10^6 PA14 cells lung infection model. Compound 54 (10 mg/kg) plus ciprofloxacin 1 mg/kg treatment (subtherapeutic dose) was initiated at 2 h post-infection and repeated at 6, 12, and 18 h post-infection. CFUs were assessed 24 h post-infection in the lung. Compound 54 was administered subcutaneously and ciprofloxacin intraperitoneally (IP).
Thigh infection studies were performed using Compounds 54 and 72.

[5] = system: Pseudomonas aeruginosa MDR clinical isolates; assay: Pyocyanin production in MDR clinical isolates; assay type: cell-based; conditions: 10 μM
Protocol: Percentage of pyocyanin production is presented in presence of 10 μM of D57 or D88 compounds. Tukey's multiple comparisons test p<0.0001.
Pyocyanin levels were determined by measuring OD520nm of chloroform-extracted cultures.

[6] = Pharmacokinetics in mouse plasma and lung after single subcutaneous injection; assay type: in vivo, mice
Protocol: FIGS. 1F-1G show pharmacokinetics measured in mouse plasma (FIG. 1F) and lung (FIG. 1G) following a single subcutaneous injection of Compounds 53, 54, or 72 at 10 mg/kg.

[7] = Pseudomonas aeruginosa, read-out: IC50 pyocyanin (μM)
[8] = Steady State Binding Affinity KD (μM), steady state
[9] = Steady State Binding Affinity KD [M], steady state
[10] = mean KD value, mean over the compounds named
[11] = compound at 10 uM, listed as D62
[12] = compound at 50 uM, listed as D62

T1 sequence (Q9I4X0 91-332): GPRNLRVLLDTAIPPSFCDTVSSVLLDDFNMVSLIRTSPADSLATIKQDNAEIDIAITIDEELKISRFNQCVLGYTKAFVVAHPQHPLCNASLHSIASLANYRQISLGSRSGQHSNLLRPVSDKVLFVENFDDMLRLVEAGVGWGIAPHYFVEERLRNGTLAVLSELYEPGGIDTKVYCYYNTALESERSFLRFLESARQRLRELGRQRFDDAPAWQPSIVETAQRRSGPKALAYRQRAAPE

Row | Compound | IC50 (MvfR regulon [1]) [µM] | activity at 50 µM (MvfR regulon [1]) [%] | IC50 (MvfR regulon [2]; [7]) [µM] | activity at 50 µM (MvfR regulon [2]; Pseudomonas aeruginosa) [%] | Signal Intensity Rmax (MvfR) | Kd (MvfR; [8]) [µM] | Kd (MvfR; [9]) [µM] | activity at 50 µM (MvfR regulon [3]; read-out: 2-AA @50 uM) [%] | activity at 50 µM (MvfR regulon [3]; read-out: DHQ @50 uM) [%] | activity at 50 µM (MvfR regulon [3]; read-out: HHQ @50 uM (%)) [%] | activity at 50 µM (MvfR regulon [3]; read-out: HQNO @50 uM (%)) [%] | activity at 50 µM (MvfR regulon [3]; read-out: PQS @50 uM (%)) [%] | Kd (MvfR; [10]) [µM] | toxicity to Caco2 (survival) [4] | activity at 1 µM (MvfR regulon [2]; Pseudomonas aeruginosa) [%] | activity at 10 µM (MvfR regulon [2]; Pseudomonas aeruginosa) [%] | activity at 10 µM (MvfR regulon [1]) [%] | activity on pyocyanin production in MDR clinical isolates [5] | further results
1 | Cc1cc(F)ccc1NCC(=O)Nc1ccc(C#N)cc1 [Compound 1] | 20.2 | 32.4 | 70.6 | 66.8 | 23.41 | 9.18 | 9.19 | 101 | 135 | 2.67 | 17 | 10.5 | – | – | – | – | – | – | IC50 (MvfR regulon [3]; PA14, read-out: IC50 HHQ (μM)): 10.4 µM; IC50 (MvfR regulon [3]; PA14, read-out: IC50 PQS (μM)): 15.1 µM; activity at 50 µM (MvfR regulon [3]; read-out: AA @50 uM): 100%; IC50 (MvfR regulon [3]; read-out: IC50 HQNO (μM)): 20.3 µM
2 | N#Cc1ccc(NC(=O)CC(=O)Nc2ccc(C#N)cc2)cc1 [Compound 57] | 0.94 | 8.3 | 1.37 | 8.07 | 27.05 | 0.286 | 0.286 | 20 | 31.9 | 18.1 | 36 | 22.3 | ~0.25 | – | – | – | – | – | binding intensity relative to parent Compound 1 (MvfR): 40 times; activity at 50 µM (MvfR regulon [3]; read-out: AA @50 uM): 531%
3 | N#Cc1ccc(NC(=O)CC(=O)Nc2ccc([N+](=O)[O-])cc2)cc1 [Compound 65] | 2.54 | 9.5 | – | 3.4 | 29.51 | 0.399 | 0.399 | 6.94 | 12.3 | 2.88 | 18.4 | 6.32 | – | not toxic | 80.3 | 29.7 | – | – | IC50 (MvfR regulon [2]; read-out: IC50 pyocyanin): 4.48 µM; IC50 (MvfR regulon [3]; PA14, read-out: IC50 2-AA (μM)): 8.95 µM; IC50 (MvfR regulon [3]; PA14, read-out: IC50 DHQ (μM)): 11.3 µM; IC50 (MvfR regulon [3]; PA14, read-out: IC50 HHQ (μM)): 21.2 µM; IC50 (MvfR regulon [3]; PA14, read-out: IC50 PQS (μM)): 23 µM; IC50 (MvfR regulon [3]; read-out: IC50 AA (increase; μM)): 34 µM; IC50 (MvfR regulon [3]; read-out: IC50 HQNO (μM)): 23.3 µM
4 | N#Cc1ccc(NC(=O)CC(=O)Nc2ccc(I)cc2)cc1 [Compound 71] | 0.72 | 6.03 | 1.63 | 13.3 | 30.74 | 0.259 | 0.259 | – | – | – | – | – | ~0.25 | not toxic | – | – | 13.3 | – | binding intensity relative to parent Compound 1 (MvfR): 40 times
5 | N#Cc1ccc(NC(=O)CC(=O)Nc2ccc(Oc3ccccc3)cc2)cc1 [Compound 72] | 0.52 | 3.7 | 0.891 | 6.06 | 34.24 | 1.09 | 1.09 | – | – | – | – | – | 0.25 | not toxic | 14 | 16.8 | 1.08 | – | bacterial CFUs at the site of infection (PA14; 10 mg/kg SC, CFUs 24 h post-infection): decrease bacterial dissemination and titer at the infection site; also recorded: reduced bacterial CFUs; potentiation of ciprofloxacin in reducing PA cells dissemination in spleen and liver (PA14; 10 mg/kg compound SC plus ciprofloxacin 1 mg/kg IP): potentiated ciprofloxacin efficacy; activity on pyocyanin production in MDR clinical isolates ([5]; listed as D57): highly active; also recorded: confirmed; stability in vivo (serum concentration) ([6]; 10 mg/kg subcutaneous, over 24 h): stable in vivo; half-life ([6]; mouse lung, 10 mg/kg SC, read-out: lung half-life (converted)): 1.19 h; Tlast ([6]; mouse plasma, 10 mg/kg SC): ~6 h; half-life ([6]; mouse plasma, 10 mg/kg SC, read-out: plasma half-life (converted)): 1.13 h; pharmacokinetics (in words) ([6]; mouse, in vivo): promising pharmacokinetics
6 | O=C(CC(=O)Nc1ccc([N+](=O)[O-])cc1)Nc1ccc(Oc2ccccc2)cc1 [Compound 73] | 0.21 | 8.9 | 0.398 | 5.9 | 33.31 | 0.755 | 0.755 | – | – | – | – | – | – | – | 9.2 | 5.2 | 1.95 | – | –
7 | O=C(CC(=O)Nc1ccc([N+](=O)[O-])cc1O)Nc1ccc(Oc2ccccc2)cc1 [Compound 76] | 0.42 | 6.7 | 0.368 | 5.6 | 36.46 | 0.478 | 0.478 | – | – | – | – | – | – | – | 10.5 | 6.17 | 10 | highly active | –
8 | N#Cc1ccc(NC(=O)CC(=O)Nc2ccc(Oc3ccccc3)cc2)c(N)c1 [Compound 77] | – | – | – | – | – | – | – | – | – | – | – | – | – | – | – | – | – | highly active | pqsA @10 uM (%) (MvfR regulon [1]; [11]): 1.51%; pqsA @50 uM (%) (MvfR regulon [1]; [12]): 6.20%; pyocyanin @1 uM (%) (MvfR regulon [2]; compound at 1 uM, listed as D62): 57.50%; pyocyanin @10 uM (%) (MvfR regulon [2]; [11]): 6.17%; pyocyanin @50 uM (%) (MvfR regulon [2]; [12]): 7.30%
9 | N#Cc1ccc(NC(=O)CC(=O)Nc2ccc(Oc3ccccc3)cc2)c(O)c1 [Compound 78] | 0.938 | 7.3 | 0.618 | 5.9 | 34.69 | 0.494 | 0.494 | – | – | – | – | – | – | – | 8.8 | 5.73 | 9.63 | highly active | –
10 | N#Cc1ccc(NC(=O)CC(=O)Nc2ccc(C#N)c(Cl)c2)cc1 [Compound 110] | – | 5.61 | – | 4.12 | – | – | – | – | – | – | – | – | 0.25 | – | 64.7 | 6.8 | 1.75 | – | –
